# Measured values: publication PMC9298194, “Clinical Pharmacokinetics of Daprodustat: Results of an Absorption, Distribution, and Excretion Study With Intravenous Microtracer and Concomitant Oral Doses for Bioavailability Determination” (Clinical Pharmacology in Drug Development, 2021)
# Assay: Urine and fecal excretion of total radioactivity (mass balance)
# Type: in vivo, human
# Settings: 25 mg [14C] oral solution; for total radioactivity recovered (urinary + fecal): 96‐ to 120‐hour collection (day 5) onward
# Description: On day 1 of treatment period 2, after an overnight fast of at least 8 hours, each participant received 25 mg [^14C]‐GSK1278863 (≈2.31 MBq; 62.5 μCi) as an oral solution; participants continued to fast for 4 hours after dosing.[15] Blood, urine, and fecal samples were collected for a minimum of 144 hours (up to day 7) after dosing, depending on the amount of radioactivity excreted by each participant in excreta collected daily. Liquid scintillation counting (LSC) was performed on these excreta collections on an ongoing basis to assess recovery of the radioactivity dosed. Participants were discharged if ≥90% and <1% of the dose was excreted on both days 6 and 7.
# Urine samples for measurement of total radioactivity excreted in urine were collected before dosing in period 1, then over the time periods 0 to 24, 24 to 48, 48 to 72, 72 to 96, 96 to 120, and 120 to 144 hours in period 2. An aliquot of each 24‐hour urine collection was shipped at ambient temperature to Covance (Harrogate, North Yorkshire, UK) for total radioactivity measurement by LSC. […] Total fecal samples were frozen at −70°C, then shipped on cold gel packs to Covance for total radioactivity measurement by LSC (following homogenization). Aliquots of both urine and fecal homogenates were also sent to GlaxoSmithKline (GSK) for characterization and quantification of metabolites (data not reported). • The following parameters were determined from the urine and fecal radiolabeled drug‐related material (total radioactivity) data: • Absolute amount excreted and percentage excreted in urine (Ae [urine] and Fe% [urine]) within each collection period and cumulative urinary recovery and fraction excreted over the total collection period • Absolute amount excreted and percentage excreted in feces (Ae [fecal] and Fe% [fecal]) with each collection period and cumulative fecal recovery and fraction excreted over the total collection period and cumulatively over the collection period
# Total excretion (sum of urine and fecal excretion), Ae [total], and Fe% [total] were calculated by collection interval for each participant. […]
smiles,measurement,setting,value
O=C(O)CNC(=O)C1C(=O)N(C2CCCCC2)C(=O)N(C2CCCCC2)C1=O [Daprodustat],unchanged daprodustat excreted in urine,,≈ 0.5 % of the administered radioactivity
same,total radioactivity recovered (urinary + fecal),,≈ 95 % of the administered radioact
same,total radioactivity recovered (urinary + fecal),listed as [^14C]‐GSK1278863,≈ 95 % of the administered radioactivity
